These results are taken from ChEMBL document CHEMBL4414671, “Antinociceptive Grayanane Diterpenoids from the Leaves of Pieris japonica” (2019).

The test system of the first assay is Mus musculus. The assay can be described thus: Antinociceptive activity in mouse as reduction in acetic acid-induced writhes at 5 mg/kg, ip relative to control. It is filed as functional.
In the case of `C=C1[C@@H]2CC[C@@H]3C[C@@]2(C[C@@H](O)[C@@]2(O)[C@@H]1[C@H](O)[C@H](O)C2(C)C)C[C@@]3(C)O`, the inhibition in vivo at 5 mg/kg was above 50%.

Take `C=C1[C@@H]2[C@@H](OC)[C@H](O)C(C)(C)[C@@]2(O)[C@H](O)C[C@]23C[C@@](C)(O)[C@H](CC[C@@H]12)[C@H]3O`: the inhibition in vivo at 5 mg/kg was above 50%.

`C=C1[C@@H]2C[C@@H](O)[C@@H]3C[C@@]2(C[C@@H](O)[C@@]2(O)[C@H]1C[C@H](O)C2(C)C)C[C@@]3(C)O` came in with an inhibition in vivo at 5 mg/kg above 50%.

With `C=C1[C@@H]2CC[C@@H]3C[C@@]2(C[C@@H](O)[C@@]2(O)[C@H]1C[C@H](O)C2(C)C)C[C@@]3(C)OC`, the inhibition in vivo at 5 mg/kg was above 50%.

For the compound `C=C1[C@@H]2[C@@H](O)[C@H](O)C(C)(C)[C@@]2(O)[C@H](O)C[C@]23C=C(C)[C@H](CC[C@@H]12)[C@H]3O`, the inhibition in vivo at 5 mg/kg was above 50%.

For the compound `CC1=C2CC[C@@H]3C[C@@]2(C[C@@H](O)[C@@]2(O)[C@H]1C[C@H](O)C2(C)C)C[C@@]3(C)O`, the inhibition in vivo at 5 mg/kg was above 50%.

Turning to `C=C1[C@@H]2[C@@H](OC)[C@H](O)C(C)(C)[C@@]2(O)[C@H](O)C[C@]23C[C@@](C)(O)[C@H](CC[C@@H]12)[C@H]3OC(=O)C(C)O` (stereo partly specified), the inhibition in vivo at 5 mg/kg was above 50%.

In turn, `CC1(C)[C@@H](O)C[C@@H]2[C@@](C)(O)[C@@H]3CC[C@]4(O)C[C@@]3(C[C@@H](O)[C@@]21O)C[C@@]4(C)O` returned an inhibition in vivo at 5 mg/kg above 50%.

Regarding `C=C1[C@@H]2CC[C@@H]3C[C@@]2(C[C@@H](O)[C@@]2(O)[C@H]1CC(=O)C2(C)C)C[C@@]3(C)O`, the inhibition in vivo at 5 mg/kg turned out to be 87.3%.

The compound `C=C1[C@@H]2[C@@H](O)[C@H](O)C(C)(C)[C@@]2(O)[C@H](O)C[C@]23C[C@@](C)(O)[C@H](CC[C@@H]12)[C@H]3OC(=O)CC` came in with an inhibition in vivo at 5 mg/kg above 50%.

`C=C1C2=C([C@H](O)C[C@@]34C[C@@H](CC[C@@H]13)[C@](C)(O)C4)C(C)(C)[C@@H](O)[C@H]2O` came in with an inhibition in vivo at 5 mg/kg above 50%.

As for `C=C1[C@@H]2CC[C@@H]3C[C@@]2(C[C@@H](O)[C@@]2(O)[C@H]1C[C@H](O)C2(C)C)C[C@@]3(C)O`, the inhibition in vivo at 5 mg/kg is above 50%.

In the case of `C=C1[C@@H]2CC[C@@H]3[C@@H](O)[C@@]2(C[C@@H](O)[C@@]2(O)[C@H]1C[C@H](O)C2(C)C)C[C@@]3(C)O`, the inhibition in vivo at 5 mg/kg was above 50%.

`C=C1[C@H]2C[C@H](O)C(C)(C)[C@]2(O)CC[C@@]23C[C@@H](CC[C@@H]12)[C@@](O)(CO)C3`: the inhibition in vivo at 5 mg/kg is above 50%.

With `C=C1[C@@H]2CC[C@@H]3[C@@H](OC(=O)CC)[C@@]2(C[C@@H](O)[C@@]2(O)[C@H]1C[C@H](O)C2(C)C)C[C@@]3(C)O`, the inhibition in vivo at 5 mg/kg was above 50%.

With `C=C1[C@@H]2CC[C@H]3C(C)=C[C@]2(C[C@@H](O)[C@@]2(O)[C@H]1C[C@H](O)C2(C)C)[C@@H]3O`, the inhibition in vivo at 5 mg/kg was above 50%.

Compound `C=C1[C@@H]2[C@H](O)[C@H](O)C(C)(C)[C@@]2(O)[C@H](O)C[C@]23C[C@@](C)(O)[C@H](CC[C@@H]12)[C@H]3O` returned an inhibition in vivo at 5 mg/kg above 50%.

Regarding `CC1=C2C[C@H](O)C(C)(C)[C@]23O[C@]12CC[C@@H]1C[C@@]2(C[C@H]3O)C[C@@]1(C)O`, the inhibition in vivo at 5 mg/kg was above 50%.

Turning to `C=C1[C@@H]2[C@@H](OC)[C@H](O)C(C)(C)[C@@]2(O)[C@H](O)C[C@]23C=C(C)[C@H](CC[C@@H]12)[C@H]3O`, the inhibition in vivo at 5 mg/kg was above 50%.

The test system of a further assay is Mus musculus. The assay can be described thus: Antinociceptive activity in mouse as reduction in acetic acid-induced writhes at 0.04 mg/kg,ip relative to control. Type of assay: functional.
Compound `CC1(C)[C@@H](O)[C@H](O)[C@H]2[C@](C)(O)[C@@H]3CC[C@@H]4[C@@H](O)[C@@]3(C[C@@H](O)[C@@]21O)C[C@@]4(C)O` displayed an inhibition in vivo at 0.04 mg/kg of 88.7%.

`CO[C@H]1[C@H](O)C(C)(C)[C@@]2(O)[C@H](O)C[C@]34C[C@@](C)(O)[C@H](CC[C@H]3[C@@](C)(O)[C@H]12)[C@H]4O` displayed an inhibition in vivo at 0.04 mg/kg of 59.1%.

Regarding `C=C1[C@@H]2CC[C@@H]3C[C@]2(C=C3CO)C[C@@H](O)[C@@]2(O)[C@H]1C[C@H](O)C2(C)C`, 0.04 mg/kg produced 56.3% inhibition in vivo.

In the case of `CC1=C[C@@]23C[C@@H](O)[C@@]4(O)[C@@H]([C@@H](O)[C@H](O)C4(C)C)[C@](C)(O)[C@@H]2CC[C@@H]1[C@H]3O`, the inhibition in vivo at 0.04 mg/kg was 61.9%.

The test system of the next assay is Mus musculus. The assay is described as follows: Antinociceptive activity in mouse as reduction in acetic acid-induced writhes at 0.2 mg/kg, ip relative to control. Type of assay: functional.
In turn, `C=C1[C@@H]2CC[C@@H]3C[C@@]2(C[C@@H](O)[C@@]2(O)[C@H]1CC(=O)C2(C)C)C[C@@]3(C)O` gave an inhibition in vivo at 0.2 mg/kg of 59.1%.

In another assay the test system is Mus musculus. The assay is described as follows: Antinociceptive activity in mouse as reduction in acetic acid-induced writhes at 1 mg/kg, ip relative to control. Type of assay: functional.
Take `C=C1[C@@H]2CC[C@@H]3C[C@@]2(C[C@@H](O)[C@@]2(O)[C@H]1CC(=O)C2(C)C)C[C@@]3(C)O`: the inhibition in vivo at 1 mg/kg came out at 76.3%.

Another assay relates to Mus musculus. The assay can be described thus: Antinociceptive activity in mouse as reduction in acetic acid-induced writhes at 0.2 to 1 mg/kg, ip relative to control. It is filed as functional.
As to `CC1=C2CC[C@@H]3[C@@H](O)[C@@]2(C[C@@H](O)[C@@]2(O)[C@H]1[C@@H](O)[C@H](O)C2(C)C)C[C@@]3(C)O`, the “inhibition (INH)” value is on record as above 50%.
